Experimental data taken from PMC3415323 (International Journal of Nanomedicine, 2012).

Target: p-gp (Homo sapiens, UniProt P08183)
Test: Effect of p-gp inhibitors on cellular transport of HSYA solution
Assay type: in vitro ADME
Details: Figure 5A

Chain of p-gp (P08183 whole entry): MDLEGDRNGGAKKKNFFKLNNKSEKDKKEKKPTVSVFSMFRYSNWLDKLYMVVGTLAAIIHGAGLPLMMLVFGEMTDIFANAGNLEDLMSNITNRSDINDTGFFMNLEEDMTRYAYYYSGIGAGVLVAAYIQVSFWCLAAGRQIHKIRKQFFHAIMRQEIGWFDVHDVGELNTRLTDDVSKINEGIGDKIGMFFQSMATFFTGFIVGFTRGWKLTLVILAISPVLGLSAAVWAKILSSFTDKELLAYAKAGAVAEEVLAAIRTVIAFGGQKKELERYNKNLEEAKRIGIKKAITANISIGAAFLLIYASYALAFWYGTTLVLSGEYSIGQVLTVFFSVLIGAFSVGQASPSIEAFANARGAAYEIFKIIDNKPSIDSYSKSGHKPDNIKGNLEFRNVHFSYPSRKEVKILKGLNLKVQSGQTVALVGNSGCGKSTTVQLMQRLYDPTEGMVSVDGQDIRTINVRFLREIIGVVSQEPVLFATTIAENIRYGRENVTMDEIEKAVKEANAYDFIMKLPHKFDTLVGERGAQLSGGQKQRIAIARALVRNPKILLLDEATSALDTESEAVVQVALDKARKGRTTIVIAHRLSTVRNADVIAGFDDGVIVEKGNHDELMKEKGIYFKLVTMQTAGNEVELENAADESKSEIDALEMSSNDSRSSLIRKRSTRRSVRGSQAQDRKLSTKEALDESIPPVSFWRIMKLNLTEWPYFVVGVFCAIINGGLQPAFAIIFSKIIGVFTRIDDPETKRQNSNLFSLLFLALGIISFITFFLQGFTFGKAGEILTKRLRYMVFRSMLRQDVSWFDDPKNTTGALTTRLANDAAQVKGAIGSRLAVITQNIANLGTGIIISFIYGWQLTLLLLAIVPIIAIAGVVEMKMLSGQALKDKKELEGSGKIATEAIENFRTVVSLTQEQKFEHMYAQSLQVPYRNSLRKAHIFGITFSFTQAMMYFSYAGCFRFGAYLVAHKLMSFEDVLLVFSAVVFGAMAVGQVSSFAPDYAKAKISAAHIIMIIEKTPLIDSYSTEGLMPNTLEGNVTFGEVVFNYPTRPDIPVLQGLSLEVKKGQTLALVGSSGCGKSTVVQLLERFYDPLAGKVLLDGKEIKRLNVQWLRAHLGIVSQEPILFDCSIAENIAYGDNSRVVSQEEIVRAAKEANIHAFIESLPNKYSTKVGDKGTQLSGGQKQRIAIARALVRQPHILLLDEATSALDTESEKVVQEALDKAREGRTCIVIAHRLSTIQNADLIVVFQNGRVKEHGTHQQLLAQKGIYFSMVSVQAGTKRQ

Cc1nc(C)c(C)nc1C [TMP, tetramethylpyrazine]
effect on the absorption of HSYA on Caco-2 cells: significantly increased
